Test results reported in ChEMBL document CHEMBL4359935, “Selective toxicity of chrysin on mitochondria isolated from liver of a HCC rat model” (Bioorg Med Chem, 2019).
The source made the active and inactive calls. No cut-off for these calls is given here.

Columns and labels:
[1] = molecular target: Succinate dehydrogenase [ubiquinone] flavoprotein subunit, mitochondrial (Rattus norvegicus) (UniProt Q920L2); assay: Inhibition of SDH in HCC model Sprague-Dawley rat hepatocyte mitochondria at 10 to 40 uM incubated for 40 mins by MTT assay
Sequence of Succinate dehydrogenase [ubiquinone] flavoprotein subunit, mitochondrial (Rattus norvegicus) (Q920L2 whole entry): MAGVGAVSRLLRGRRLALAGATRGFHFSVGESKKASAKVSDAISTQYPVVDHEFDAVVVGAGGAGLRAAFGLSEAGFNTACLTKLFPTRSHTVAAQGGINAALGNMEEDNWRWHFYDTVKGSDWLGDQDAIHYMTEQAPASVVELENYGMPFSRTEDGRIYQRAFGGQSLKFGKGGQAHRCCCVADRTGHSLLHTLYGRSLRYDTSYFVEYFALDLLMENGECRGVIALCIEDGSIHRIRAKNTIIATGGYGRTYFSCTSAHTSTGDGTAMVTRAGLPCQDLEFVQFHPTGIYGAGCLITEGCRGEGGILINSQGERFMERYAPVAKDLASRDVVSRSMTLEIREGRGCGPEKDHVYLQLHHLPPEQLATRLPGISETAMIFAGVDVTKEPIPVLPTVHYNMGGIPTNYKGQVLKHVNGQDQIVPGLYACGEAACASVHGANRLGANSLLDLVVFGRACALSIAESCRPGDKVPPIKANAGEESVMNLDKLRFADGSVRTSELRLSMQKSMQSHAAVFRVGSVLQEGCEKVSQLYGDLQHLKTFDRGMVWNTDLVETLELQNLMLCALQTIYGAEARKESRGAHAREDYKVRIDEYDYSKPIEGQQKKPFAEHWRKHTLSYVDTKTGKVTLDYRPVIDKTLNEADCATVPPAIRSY

[2] = Effect on SDH activity in Sprague-Dawley rat hepatocyte mitochondria at 10 to 40 uM incubated for 40 mins by MTT assay; type: ADME; conditions: hepatocytes
[3] = organism: Rattus norvegicus; assay: Induction of ROS production in HCC model Sprague-Dawley rat hepatocyte mitochondria at 10 to 40 uM incubated upto 60 mins by DCFH probe based fluorescence spectrophotometer; type: functional
[4] = organism: Rattus norvegicus; assay: Induction of mitochondrial membrane potential disruption in HCC model Sprague-Dawley rat hepatocyte assessed as collapsed mitochondrial membrane potential at 10 to 40 uM incubated upto 60 mins by Rhodamine 123 probe based fluorescence spectrophotometry; type: functional
[5] = Induction of ROS production in Sprague-Dawley rat hepatocyte mitochondria at 10 to 40 uM incubated upto 60 mins by DCFH probe based fluorescence spectrophotometry; conditions: hepatocytes, 1 h
[6] = Induction of mitochondrial membrane potential disruption in Sprague-Dawley rat hepatocyte assessed as collapsed mitochondrial membrane potential at 10 to 40 uM incubated upto 60 mins by Rhodamine 123 probe based fluorescence spectrophotometry; conditions: hepatocytes, 1 h
[7] = organism: Rattus norvegicus; assay: Induction of mitochondrial swelling in HCC model Sprague-Dawley rat hepatocyte at 10 to 40 uM; type: functional
[8] = Induction of mitochondrial swelling in Sprague-Dawley rat hepatocyte at 10 to 40 uM; conditions: hepatocytes
[9] = tested on: Hepatocyte; assay: Induction of apoptosis in isolated HCC model Sprague-Dawley rat hepatocytes assessed as increase in cytochrome C release at 20 uM by ELISA relative to control; type: functional
[10] = tested on: Hepatocyte; assay: Induction of apoptosis in isolated HCC model Sprague-Dawley rat hepatocytes assessed as increase in cytochrome C release at 20 uM in presence of CsA by ELISA; type: functional, cell-based
[11] = tested on: Hepatocyte; assay: Induction of apoptosis in isolated HCC model Sprague-Dawley rat hepatocytes assessed as increase in cytochrome C release at 20 uM in presence of BHT by ELISA; type: functional, cell-based
[12] = tested on: Hepatocyte; assay: Induction of apoptosis in isolated HCC model Sprague-Dawley rat hepatocytes assessed as increase in caspase 3 activity at 12 uM relative to control; type: functional

SMILES: O=c1cc(-c2ccccc2)oc2cc(O)cc(O)c12 [CHRYSIN]
- inhibition [1]: Active
- Activity [2]: Non-Toxic
- Activity [3]: Active
- Activity [4]: Active
- Activity [5]: Non-Toxic
- Activity [6]: Non-Toxic
- Activity [7]: Active
- Activity [8]: Non-Toxic
- fold change (FC) [9]: 1.6
- Activity [10]: inactive
- Activity [11]: inactive
- fold change (FC) [12]: 2.4
